Bridges are numbered along the chain shown (N, C = ends). Where no end group is shown, it is not given here. [ ]: non-standard residue; d: D form.
Key:
[1] = system: Human placental-derived vascular endothelial cells; test: Binding and internalization in angiogenic vascular endothelial cells; details: acid wash
Description: Human placental-derived vascular endothelial cells were used to assay for cell binding of the somatostatin analog, ^125I-JIC-2D. The radioligand, a somatostatin analog, ^125I-JIC-2D, was made by solid phase peptide synthesis as described in U.S. Patent No. 5,597,894. This peptide has an amino acid sequence of the following: D-Lys-D-Tyr-D-Lys-D-Tyr-D-Lys-c[Cys-Phe-D-Trp-Lys-Thr-Cys]-Thr-NH2. The cells were obtained by growing discs of human placental veins in fibrinclots for 14 days. […] These discs and their angiogenic sprouts are harvested mechanically and dissociated by vortexing. The vein discs are then discarded and the endothelial cells pooled. Cells were harvested, counted with a hemocytometer, and resuspended in binding buffer (Minimum Essential Medium (MEM), 10 mM Hepes, 0.01 % BSA). A standard assay used 500,000 cells in 1 ml of binding buffer. […] At the termination of the experiment, the incubation medium was removed, the cells were rinsed twice with Hanks balanced salt solution (HBSS), and the radioactivity in the cells determined using a gamma counter. This level of radioactivity represents total binding, which includes both membrane-bound and internalized fractions. Specific binding was determined by calculating the difference in the levels of measured radioactivity without the unlabeled competitor minus the radioactivity with the unlabeled competitor. […]

IMR-32 cells = test: Nuclear translocation (Percoll density gradient fractionation); type: cell-based, human
Protocol: The cells were washed twice in media at 4°C and resuspended in cold isotonic sucrose. The labeled cells were passed through a ball-bearing homogenizer three times to disrupt cell membranes while leaving approximately 95% of the cell nuclei intact, according to the method of Balch et al., Arch. Biochem. Biophys., vol. 240, p. […] The cell homogenate was mixed with Percoll to give a final concentration of […] Percoll and spun at 20,400 rpm in a Beckman 40.2 rotor for 45 min to generate a density gradient. Density marker beads (Pharmacia) were used to indicate density levels in the tube. The contents of the tube were fractionated in an ISCO Density Gradient Fractionator. The resulting tubes were assayed for content of radiolabeled somatostatin or analogs, DNA to indicate nuclei, protein, the plasma membrane marker 5'-nucleotidase, and the lysosome marker N-acetylglucosaminidase. The usual assumption was made that the radioactivity measured in fractions rich in a certain cell component was in fact associated with that component; e.g., the radioactivity measured in a fraction rich in plasma membrane was due to association of the radiolabeled compound with the plasma membrane.
The density distribution is represented by the triangles in the figures. Nuclear fractions were found in the density gradient represented by Tubes 12-15, and membrane fractions by Tubes 0-6. […] Radiodecaying nuclei will then ionize DNA, resulting in cellular damage.

Substance | binding and internalization [1] | cellular distribution (membrane vs nuclear fractions) (IMR-32 cells; 1 hr) | cellular distribution (membrane vs nuclear fractions) (IMR-32 cells; 4 hr) | cellular distribution (membrane vs nuclear fractions) (IMR-32 cells; 24 hr)
[dK][dY][dK][dY][dK]CF[dW]KTCT-NH2 (disulfide 6-11) [^125I-JIC-2D] | the vast majority of the radioligand was internalized into the cell | – | – | –
^125I-somatostatin: radiolabeled native somatostatin (AGCKNFFWKTFTSC; disulfide 3-14 (inferred); ends not checked; also: 125I label, position not given here; UniProt P61278 103-116, looked up) | – | both membrane binding and small amounts of nuclear binding | the plasma membrane binding appeared to have peaked and the nuclear fraction was dissipating | essentially no plasma membrane or nuclear binding was seen

From patent EP0961591B1, “METHOD TO ENHANCE TISSUE AC[…] RADIOLABELED COMPOUNDS” (BOARD OF SUPERVISORS OF LOUISIANA STATE UNIVERSITY AND …, priority 1997, dated 1999)
